We go through two compounds from PMC5838563, “Compounds producing an effective combinatorial regimen for disruption of HIV‐1 latency” (EMBO Molecular Medicine, 2017).

Each structure is given as a SMILES string.

One assay concerns CD69 expression on PBMCs. As to the kind of experiment: CD69 expression by flow cytometry on PBMCs from healthy donors. The format is cell-based, human. The text has this:
As discussed earlier, an ideal combination of latency‐reversing compounds would reverse HIV‐1 latency in a broad spectrum of infected cells, without causing global T‐cell activation. Accordingly, we examined the effects of PH02 and PEP005 on T‐cell activation and toxicity on primary cells (PBMCs) isolated from healthy donors. […] Consequently, we examined the effect of lower concentrations of PEP005, alone and in combination with PH02 on these primary cells. […] Based on these observations, we expected that 1 nM PEP005 in combination with PH02 should produce negligible toxicity, and have minimal effects on T‐cell activation, while being capable of causing significant reversal of HIV latency (Fig 4F, Appendix Fig S2B).
Figure 9 Effect of PH02 in combination with PEP005 on T‐cell activation Expression of CD69 on PBMCs from three healthy donors (A, B, C; n = 3) was measured by flow cytometry following 24‐h treatment with 3 μM of PH02 alone or in combination with the indicated concentration of PEP005. Positive control samples were treated with PMA. Statistical significance, as determined by one‐way ANOVA, is indicated: *P < 0.05; **P < 0.005; ***P < 0.0005; ****P < 0.00005; ns, no significant difference. The exact P‐values are indicated in Appendix Table S1.
Luciferase assays were performed in 96‐well plate format, where 100 μl of cell culture containing 1 × 10^5 luciferase reporter cells was plated per well. After the indicated time of treatment, 100 μl of luciferase assay reagent (SuperlightTM luciferase reporter Gene Assay Kit; BioAssay Systems) was added per well, and incubated for 2 min at RT, when luciferase activity was measured on a VictorTM X3 Multilabel Plate Reader. Results were presented relative to the positive control samples treated with 50 nM PMA. T‐cell activation was measured using 1 × 10^5 wild‐type Jurkat^Tat cells or PBMCs purified from healthy donors, treated as indicated. After 24 h, cells were incubated with 2.4G2 antibody to block nonspecific binding and further stained with 5 μl of anti‐human CD69 or an IgG1 isotype control antibody conjugated with PE‐Cy^Tm7. After 30‐min incubation on ice, the cells were washed twice with PBS and analyzed using a Becton Dickinson LSRII flow cytometer (BD Biosciences) to determine mean fluorescence intensity (MFI), using FlowJo software. The mean fluorescence intensity (MFI) obtained from cells stained with IgG isotype antibody control was subtracted from that from cells stained with CD69 to compensate for background (MFICD69‐MFIIgG). IL‐2 production was measured in cell culture supernatants using a human IL‐2 ELISA System (eBioscience). […]

Assay [1] has as its system latent HIV‐1 provirus in CD4^+ T cells from aviremic HIV‐infected patients. As to the kind of experiment: Intracellular HIV‐1 mRNA in CD4+ T cells of aviremic patients. The format is cell-based. As to the method: However, 1 nM PEP005 in combination with 1 μM PH02 produced a significant response that was double that produced by 1 μM PH02 on its own (Fig 10A). We confirmed this effect using a quantitative viral outgrowth assay (qVOA) with pools of CD4^+ T cells isolated from HIV‐1‐infected patient samples (Fig EV5, Appendix Table S5). […] We conclude that this combination of treatments may represent a promising candidate therapy to target persistent latent viral infection.
Figure 10 Effect of PH02 and PEP005 on expression of HIV provirus in latently infected cells from patients • Expression of intracellular HIV‐1 mRNA was determined from pools of CD4^+ T cells from aviremic HIV‐infected patients (n = 3, Appendix Table S4) following 24‐h treatment as indicated. Results are shown as fold induction relative to untreated controls. • Quantitative viral outgrowth assays (qVOA) were used to measure reactivation of HIV‐1 provirus from latency in pools of cells from patients. […] Data information: Statistical significance was determined by one‐way ANOVA and indicated as: *P < 0.05; **P < 0.005; ***P < 0.0005; ****P < 0.00005. […]
HIV‐1 RNA was measured from 1 × 10^6 resting CD4^+ T lymphocytes treated with 30 μM of each compound. […] RNA copy number was calculated using a standard curve generated from titrated infections with RGH‐PGK virus (Dahabieh et al, 2013). […]

Where [2] appears, read: 3 μM PH02 or 1 nM PEP005 alone, 24 h.

With `CC(=O)Oc1ccccc1N(C=C1Sc2ccccc2C1=O)C(C)=O` [PH02, 2‐{acetyl[(3‐oxo‐1‐benzothien‐2(3H)‐ylidene)methyl]amino}phenyl acetate], the CD69 induction entry in the assay with CD69 expression on PBMCs (3 μM PH02 + 1 nM PEP005, 24 h) is reported as “did not cause significant CD69 induction”; in the assay with CD69 expression on PBMCs (setting [2]), “did not cause significant CD69 induction”. The “response of combination relative to 1 μM PH02 on its own” value in assay [1] (1 μM PH02 + 1 nM PEP005, 24 h) is given as “double”.

As for `C/C=C(/C)C(=O)O[C@H]1C(C)=C[C@]23C(=O)[C@@H](C=C(CO)[C@@H](O)[C@]12O)[C@H]1[C@@H](C[C@H]3C)C1(C)C` [PEP005, ingenol‐3‐angelate, reference compound], the CD69 induction result in the assay on CD69 expression on PBMCs (setting [2]) is on record as “did not cause significant CD69 induction”. In addition, in the assay with CD69 expression on PBMCs (alone and in combination with 3 μM PH02, 24 h), the “PEP005 concentration causing CD69 expression at levels similar to PMA” value is listed as “higher than 1 nM”. The “induction of viral RNA” value in assay [1] (1 nM PEP005 alone, 24 h) is “did not cause induction of viral RNA”.
